ChEMBL document CHEMBL1201861, “Genomics of Drug Sensitity in Cancer screening data, Wellcome Trust Sanger Institute”

Experiments:
Assay in all cases: cells
GMS-10 = assay type: functional, cell-based, Homo sapiens; settings: Homo sapiens, GMS-10;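 further: growth inhibition of GMS-10 cells, read out as cell viability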
Description: SANGER: Inhibition of human GMS-10 cell growth in a cell viability assay.

GP5d = assay type: functional, cell-based, Homo sapiens; settings: Homo sapiens, GP5d;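 further: growth inhibition of human GP5d cells, read out with a cell viability assay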
Description: SANGER: Inhibition of human GP5d cell growth in a cell viability assay.

NCI-H1155 = assay type: functional, cell-based; settings: Homo sapiens;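 further: cell growth inhibition measured by a viability assay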
Description: SANGER: Inhibition of human NCI-H1155 cell growth in a cell viability assay.

A673 = assay type: functional, cell-based, Homo sapiens; settings: Homo sapiens, A673;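 further: growth inhibition of human A673 cells, read out through a cell viability assay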
Description: SANGER: Inhibition of human A673 cell growth in a cell viability assay.

CAL-33 = assay type: functional, cell-based, Homo sapiens; settings: Homo sapiens, CAL-33;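 further: growth inhibition of CAL-33 cells, read out with a cell viability assay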
Description: SANGER: Inhibition of human CAL-33 cell growth in a cell viability assay.

HuO-3N1 = assay type: functional, cell-based, Homo sapiens; settings: Homo sapiens, HuO-3N1;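 further: cell viability readout used to measure how strongly compounds suppress proliferation of human HuO-3N1 cells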
Description: SANGER: Inhibition of human HuO-3N1 cell growth in a cell viability assay.

DSH1 = assay type: functional, cell-based, Homo sapiens; settings: Homo sapiens, DSH1;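 further: growth inhibition of human DSH1 cells, measured with a cell viability readout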
Description: SANGER: Inhibition of human DSH1 cell growth in a cell viability assay.

COLO-800 = assay type: functional, cell-based, Homo sapiens; settings: Homo sapiens, COLO-800;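 further: growth inhibition of COLO-800 cells, read out with a cell viability assay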
Description: SANGER: Inhibition of human COLO-800 cell growth in a cell viability assay.

KYSE-450 = assay type: functional, cell-based; settings: Homo sapiens;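 further: cell growth inhibition measured by a viability assay in human KYSE-450 cells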
Description: SANGER: Inhibition of human KYSE-450 cell growth in a cell viability assay.

SK-N-DZ = assay type: functional, cell-based, Homo sapiens; settings: Homo sapiens, SK-N-DZ;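 further: growth inhibition of the cancer cell line, read out through a viability assay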
Description: SANGER: Inhibition of human SK-N-DZ cell growth in a cell viability assay.

TE-12 = assay type: functional, cell-based; settings: Homo sapiens;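 further: growth inhibition of TE-12 cells, read out by a cell viability assay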
Description: SANGER: Inhibition of human TE-12 cell growth in a cell viability assay.

MOLT-4 = assay type: functional, cell-based; settings: Homo sapiens;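 further: growth inhibition of MOLT-4 cells, determined with a cell viability readout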
Description: SANGER: Inhibition of human MOLT-4 cell growth in a cell viability assay.

KYSE-410 = assay type: functional, cell-based, Homo sapiens; settings: Homo sapiens, KYSE-410;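 further: growth inhibition of KYSE-410 cells, measured through a cell viability readout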
Description: SANGER: Inhibition of human KYSE-410 cell growth in a cell viability assay.

MFM-223 = assay type: functional, cell-based, Homo sapiens; settings: Homo sapiens, MFM-223
Description: SANGER: Inhibition of human MFM-223 cell growth in a cell viability assay.

A498 = assay type: functional, cell-based, Homo sapiens; settings: Homo sapiens, A498;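 further: growth inhibition of human A498 cells, read out with a cell viability assay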
Description: SANGER: Inhibition of human A498 cell growth in a cell viability assay.

Ca-Ski = assay type: functional, cell-based; settings: Homo sapiens;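 further: cell viability assay measuring inhibition of Ca-Ski cell growth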
Description: SANGER: Inhibition of human Ca-Ski cell growth in a cell viability assay.

BCPAP = assay type: functional, cell-based, Homo sapiens; settings: Homo sapiens, BCPAP;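 further: growth inhibition of BCPAP cells, read out in a cell viability assay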
Description: SANGER: Inhibition of human BCPAP cell growth in a cell viability assay.

MZ7-mel = assay type: functional, cell-based, Homo sapiens; settings: Homo sapiens, MZ7-mel;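 further: growth inhibition of human MZ7-mel cells, measured by a cell viability assay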
Description: SANGER: Inhibition of human MZ7-mel cell growth in a cell viability assay.

ASPC1 = assay type: functional, cell-based, Homo sapiens; settings: Homo sapiens, ASPC1;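 further: growth inhibition of AsPC-1 cells, read out with a cell viability assay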
Description: SANGER: Inhibition of human AsPC-1 cell growth in a cell viability assay.

EC-GI-10 = assay type: functional, cell-based, Homo sapiens; settings: Homo sapiens, EC-GI-10
Description: SANGER: Inhibition of human EC-GI-10 cell growth in a cell viability assay.

HEL = assay type: functional, cell-based, Homo sapiens; settings: Homo sapiens, HEL;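 further: growth inhibition of HEL cells, read out with a cell viability assay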
Description: SANGER: Inhibition of human HEL cell growth in a cell viability assay.

NB5 = assay type: functional, cell-based, Homo sapiens; settings: Homo sapiens, NB5;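 further: growth inhibition of NB5 cells, read out as cell viability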
Description: SANGER: Inhibition of human NB5 cell growth in a cell viability assay.

SK-MEL3 = assay type: functional, cell-based, Homo sapiens, SK-MEL-3; settings: Homo sapiens, SK-MEL3;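 further: growth inhibition of human SK-MEL-3 cells, read out with a cell viability assay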
Description: SANGER: Inhibition of human SK-MEL-3 cell growth in a cell viability assay.

VMRC-RCZ = assay type: functional, cell-based; settings: Homo sapiens;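 further: growth inhibition measured with a cell viability assay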
Description: SANGER: Inhibition of human VMRC-RCZ cell growth in a cell viability assay.

HDLM-2 = assay type: functional, cell-based; settings: Homo sapiens;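 further: cell viability assay measuring suppression of HDLM-2 proliferation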
Description: SANGER: Inhibition of human HDLM-2 cell growth in a cell viability assay.

NCI-H1437 = assay type: functional, cell-based, Homo sapiens; settings: Homo sapiens, NCI-H1437;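 further: growth inhibition of human NCI-H1437 cells, read out by a cell viability assay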
Description: SANGER: Inhibition of human NCI-H1437 cell growth in a cell viability assay.

M059J = assay type: functional, cell-based, Homo sapiens; settings: Homo sapiens, M059J;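 further: growth inhibition of M059J cells, read out with a cell viability assay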
Description: SANGER: Inhibition of human M059J cell growth in a cell viability assay.

697 = assay type: functional, cell-based; settings: Homo sapiens
Description: SANGER: Inhibition of human 697 cell growth in a cell viability assay.

CAL-39 = assay type: functional, cell-based, Homo sapiens; settings: Homo sapiens, CAL-39;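 further: cell viability assay measuring growth inhibition of CAL-39 cells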
Description: SANGER: Inhibition of human CAL-39 cell growth in a cell viability assay.

NCI-H1648 = assay type: functional, cell-based, Homo sapiens; settings: Homo sapiens, NCI-H1648;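 further: cell viability assay measuring inhibition of NCI-H1648 cell growth, from the Sanger screening data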
Description: SANGER: Inhibition of human NCI-H1648 cell growth in a cell viability assay.

EW-18 = assay type: functional, cell-based; settings: Homo sapiens;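 further: growth inhibition of EW-18 cells, read out by a cell viability assay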
Description: SANGER: Inhibition of human EW-18 cell growth in a cell viability assay.

H4 = assay type: functional, cell-based; settings: Homo sapiens
Description: SANGER: Inhibition of human H4 cell growth in a cell viability assay.

GOTO = assay type: functional, cell-based, Homo sapiens; settings: Homo sapiens, GOTO;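 further: growth inhibition of GOTO cells, read out by a cell viability assay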
Description: SANGER: Inhibition of human GOTO cell growth in a cell viability assay.

BHY = assay type: functional, cell-based, Homo sapiens; settings: Homo sapiens, BHY;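 further: cell growth inhibition read out by a viability assay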
Description: SANGER: Inhibition of human BHY cell growth in a cell viability assay.

NCI-H1792 = assay type: functional, cell-based, Homo sapiens; settings: Homo sapiens, NCI-H1792;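 further: growth inhibition of human NCI-H1792 cells, read out as cell viability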
Description: SANGER: Inhibition of human NCI-H1792 cell growth in a cell viability assay.

NCI-H82 = assay type: functional, cell-based; settings: Homo sapiens;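 further: growth inhibition of NCI-H82 cells, measured with a cell viability readout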
Description: SANGER: Inhibition of human NCI-H82 cell growth in a cell viability assay.

MHH-PREB-1 = assay type: functional, cell-based; settings: Homo sapiens;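 further: cell viability assay measuring inhibition of proliferation of human MHH-PREB-1 cells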
Description: SANGER: Inhibition of human MHH-PREB-1 cell growth in a cell viability assay.

HCC1806 = assay type: functional, cell-based, Homo sapiens; settings: Homo sapiens, HCC1806;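 further: growth inhibition of the cancer cell line, determined with a cell viability assay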
Description: SANGER: Inhibition of human HCC1806 cell growth in a cell viability assay.

HAL-01 = assay type: functional, cell-based; settings: Homo sapiens;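 further: growth inhibition of human HAL-01 cells, read out with a cell viability assay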
Description: SANGER: Inhibition of human HAL-01 cell growth in a cell viability assay.

MDA-MB-175-VII = assay type: functional, cell-based, Homo sapiens; settings: Homo sapiens, MDA-MB-175-VII
GI-ME-N = assay type: functional, cell-based, Homo sapiens; settings: Homo sapiens, GI-ME-N;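 further: growth inhibition of human GI-ME-N cells, read out with a cell viability assay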
Description: SANGER: Inhibition of human GI-ME-N cell growth in a cell viability assay.

SW756 = assay type: functional, cell-based, Homo sapiens; settings: Homo sapiens, SW756;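 further: growth inhibition of human SW756 cells, read out with a cell viability assay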
Description: SANGER: Inhibition of human SW756 cell growth in a cell viability assay.

CCRF-CEM = assay type: functional, cell-based; settings: Homo sapiens;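 further: inhibition of CCRF-CEM cell growth, measured by a cell viability assay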
Description: SANGER: Inhibition of human CCRF-CEM cell growth in a cell viability assay.

CAL-54 = assay type: functional, cell-based, Homo sapiens; settings: Homo sapiens, CAL-54;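 further: growth inhibition of CAL-54 cells, read out by a viability measurement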
Description: SANGER: Inhibition of human CAL-54 cell growth in a cell viability assay.

NCI-H1651 = assay type: functional, cell-based, Homo sapiens; settings: Homo sapiens, NCI-H1651;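 further: Read-out is a cell viability assay, with IC50 expressing inhibition of NCI-H1651 cell growth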
Description: SANGER: Inhibition of human NCI-H1651 cell growth in a cell viability assay.

LCLC-97TM1 = assay type: functional, cell-based, Homo sapiens; settings: Homo sapiens, LCLC-97TM1;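 further: cell viability assay measuring growth inhibition of human LCLC-97TM1 cells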
Description: SANGER: Inhibition of human LCLC-97TM1 cell growth in a cell viability assay.

TE-1 = assay type: functional, cell-based, Homo sapiens; settings: Homo sapiens, TE-1
Description: SANGER: Inhibition of human TE-1 cell growth in a cell viability assay.

MCF7 = assay type: functional, cell-based, Homo sapiens; settings: Homo sapiens, MCF7;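 further: growth inhibition of human MCF7 cells, read out with a cell viability assay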
Description: SANGER: Inhibition of human MCF7 cell growth in a cell viability assay.

ES3 = assay type: functional, cell-based, Homo sapiens; settings: Homo sapiens, ES3;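 further: growth inhibition of ES3 cells, read out with a cell viability assay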
Description: SANGER: Inhibition of human ES3 cell growth in a cell viability assay.

NMC-G1 = assay type: functional, cell-based, Homo sapiens; settings: Homo sapiens, NMC-G1;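 further: growth inhibition of the NMC-G1 cell line, measured with a cell viability read-out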
Description: SANGER: Inhibition of human NMC-G1 cell growth in a cell viability assay.

ONS-76 = assay type: functional, cell-based, Homo sapiens; settings: Homo sapiens, ONS-76;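 further: growth inhibition of human ONS-76 cells, read out with a cell viability assay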
Description: SANGER: Inhibition of human ONS-76 cell growth in a cell viability assay.

SK-MEL-2 = assay type: functional, cell-based, Homo sapiens; settings: Homo sapiens, SK-MEL-2;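 further: growth inhibition of human SK-MEL-2 cells measured with a cell viability assay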
Description: SANGER: Inhibition of human SK-MEL-2 cell growth in a cell viability assay.

CC(=O)O[C@@]12CO[C@@H]1C[C@H](O)[C@@]1(C)C(=O)[C@H](O)C3=C(C)[C@@H](OC(=O)[C@H](O)[C@@H](NC(=O)OC(C)(C)C)c4ccccc4)C[C@@](O)([C@@H](OC(=O)c4ccccc4)[C@H]21)C3(C)C [DOCETAXEL]
IC50 (GMS-10): 0.941 nM | IC50 (GP5d): 2.96 nM | IC50 (NCI-H1155): > 10 nM | IC50 (A673): 2.35 nM | IC50 (CAL-33): 1.04 nM | IC50 (HuO-3N1): 0.302 nM | IC50 (DSH1): > 10 nM | IC50 (COLO-800): 0.388 nM | IC50 (KYSE-450): 1.43 nM | IC50 (SK-N-DZ): 9.83 nM | IC50 (TE-12): > 10 nM | IC50 (MOLT-4): 4.71 nM | IC50 (KYSE-410): 1.24 nM | IC50 (MFM-223): 6.16 nM | IC50 (A498): 0.278 nM | IC50 (Ca-Ski): 0.728 nM | IC50 (BCPAP): 0.947 nM | IC50 (MZ7-mel): > 10 nM | IC50 (ASPC1): 6.83 nM | IC50 (EC-GI-10): 0.592 nM | IC50 (HEL): > 10 nM | IC50 (NB5): > 10 nM | IC50 (SK-MEL3): > 10 nM | IC50 (VMRC-RCZ): 2.52 nM | IC50 (HDLM-2): > 10 nM | IC50 (NCI-H1437): 2.6 nM | IC50 (M059J): 1.98 nM | IC50 697: 1.72 nM | IC50 (CAL-39): 1.63 nM | IC50 (NCI-H1648): 6.01 nM | IC50 (EW-18): > 10 nM | IC50 (H4): 1.96 nM | IC50 (GOTO): 2.27 nM | IC50 (BHY): 2.16 nM | IC50 (NCI-H1792): 1.04 nM | IC50 (NCI-H82): 8.22 nM | IC50 (MHH-PREB-1): 1.89 nM | IC50 (HCC1806): 1.18 nM | IC50 (HAL-01): > 10 nM | IC50 (MDA-MB-175-VII): > 10 nM | IC50 (GI-ME-N): 3.58 nM | IC50 (SW756): 2.16 nM | IC50 (CCRF-CEM): > 10 nM | IC50 (CAL-54): > 10 nM | IC50 (NCI-H1651): 5.4 nM | IC50 (LCLC-97TM1): 1.44 nM | IC50 (TE-1): 2.16 nM | IC50 (MCF7): 1.61 nM | IC50 (ES3): 2.77 nM | IC50 (NMC-G1): 0.517 nM | IC50 (ONS-76): 3.22 nM | IC50 (SK-MEL-2): 1.7 nM

COc1cc([C@@H]2c3cc4c(cc3[C@@H](O[C@@H]3O[C@@H]5CO[C@@H](C)O[C@H]5[C@H](O)[C@H]3O)[C@H]3COC(=O)[C@H]23)OCO4)cc(OC)c1O [ETOPOSIDE]
IC50 (GMS-10): > 16000 nM | IC50 (GP5d): 5830 nM | IC50 (NCI-H1155): 11000 nM | IC50 (A673): 2160 nM | IC50 (CAL-33): 686 nM | IC50 (HuO-3N1): 7710 nM | IC50 (DSH1): 2360 nM | IC50 (COLO-800): 2100 nM | IC50 (KYSE-450): 3690 nM | IC50 (SK-N-DZ): > 16000 nM | IC50 (TE-12): > 16000 nM | IC50 (MOLT-4): 418 nM | IC50 (KYSE-410): 12800 nM | IC50 (MFM-223): > 16000 nM | IC50 (A498): > 16000 nM | IC50 (Ca-Ski): 2330 nM | IC50 (BCPAP): 737 nM | IC50 (MZ7-mel): 4300 nM | IC50 (ASPC1): > 16000 nM | IC50 (EC-GI-10): > 16000 nM | IC50 (HEL): 3900 nM | IC50 (NB5): > 16000 nM | IC50 (SK-MEL3): 10100 nM | IC50 (VMRC-RCZ): 1970 nM | IC50 (HDLM-2): 13800 nM | IC50 (NCI-H1437): 3380 nM | IC50 (M059J): 364 nM | IC50 697: 243 nM | IC50 (CAL-39): 4640 nM | IC50 (NCI-H1648): > 16000 nM | IC50 (EW-18): > 16000 nM | IC50 (H4): 297 nM | IC50 (GOTO): 6380 nM | IC50 (BHY): 1530 nM | IC50 (NCI-H1792): > 16000 nM | IC50 (NCI-H82): > 16000 nM | IC50 (MHH-PREB-1): > 16000 nM | IC50 (HCC1806): 4730 nM | IC50 (HAL-01): 3800 nM | IC50 (MDA-MB-175-VII): > 16000 nM | IC50 (GI-ME-N): 9830 nM | IC50 (SW756): 2980 nM | IC50 (CCRF-CEM): 170 nM | IC50 (CAL-54): 8920 nM | IC50 (NCI-H1651): > 16000 nM | IC50 (LCLC-97TM1): 766 nM | IC50 (TE-1): > 16000 nM | IC50 (MCF7): 831 nM | IC50 (ES3): 628 nM | IC50 (NMC-G1): 3320 nM | IC50 (ONS-76): 754 nM | IC50 (SK-MEL-2): > 16000 nM
